Results as given in PubChem BioAssay (NCI).
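Dose response: 5 concentrations. Exposure: 48 h. Format: 96-well plates. Endpoint: linear interpolation; highest concentration if not reached. GI50: concentration for 50% inhibition of growth. TGI marks complete inhibition of growth.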

Tests used:
Test in all cases: NCI-60 cell line screen, 48 h
[1] = test system: SW-620 colon
[2] = test system: IGROV1 ovarian
[3] = test system: PC-3 prostate
[4] = test system: CCRF-CEM leukemia
[5] = test system: HCC-2998 colon
[6] = test system: OVCAR-3 ovarian
[7] = test system: MCF7 breast
[8] = test system: HT29 colon
[9] = test system: RPMI-8226 leukemia
[10] = test system: NCI-H23 lung

SMILES: COc1cc2oc(-c3ccc(O)cc3)cc(=O)c2c(OC)c1OC
- TGI [1]: > 100000 nM
- TGI [2]: > 100000 nM
- TGI [3]: > 100000 nM
- TGI [4]: > 100000 nM
- TGI [5]: > 100000 nM
- TGI [6]: > 100000 nM
- TGI [7]: > 100000 nM
- TGI [8]: > 100000 nM
- TGI [9]: > 100000 nM
- TGI [10]: > 100000 nM

SMILES: CC(=O)OC1CC(O)C23COC(O)C1(C)C2CC(O)C1(C)C3C(=O)C(O)C2(C)C(c3ccoc3)CC3OC321 (stereo not drawn)
- GI50 [1]: 32.3 nM
- TGI [1]: > 100000 nM
- GI50 [2]: 377 nM
- TGI [2]: > 100000 nM
- GI50 [3]: 11.4 nM
- TGI [3]: > 100000 nM
- GI50 [4]: < 16.2 nM
- TGI [4]: > 100000 nM
- GI50 [5]: 420 nM
- TGI [5]: > 100000 nM
- GI50 [6]: 41200 nM
- TGI [6]: > 100000 nM
- GI50 [7]: > 100000 nM
- TGI [7]: > 100000 nM
- GI50 [8]: < 10 nM
- TGI [8]: > 33300 nM
- GI50 [9]: < 10 nM
- TGI [9]: 23.7 nM
- TGI [10]: > 100000 nM

SMILES: COc1ccc(C(=O)c2cc(C)c(OC)c(C)c2)c(OC)c1N(C(=O)C(Cl)Cl)C(=O)C(Cl)Cl
- GI50 [1]: 42.6 nM
- TGI [1]: > 100000 nM
- GI50 [2]: 101 nM
- TGI [2]: > 100000 nM
- GI50 [3]: 43.6 nM
- TGI [3]: > 100000 nM
- GI50 [4]: 62.6 nM
- TGI [4]: > 100000 nM
- GI50 [5]: 79.9 nM
- TGI [5]: > 41200 nM
- GI50 [6]: 35.7 nM
- GI50 [7]: 81.1 nM
- TGI [7]: > 100000 nM
- GI50 [8]: 323 nM
- TGI [8]: > 40600 nM
- GI50 [9]: 79.4 nM
- TGI [9]: 20800 nM
- GI50 [10]: 90.9 nM
- TGI [10]: > 100000 nM
